Laboratory results taken from US20060189546A1, “Compounds for treating autoimmune and demyelinating diseases” (priority 2005, published 2006).

Test system: colorectal cancer cell lines (HT29 & HCT116)
Experiment: Microarray gene expression, cells grown with Symadex at the GI50 concentration
Type: cell-based, human
Text: Two colorectal cancer cell lines (HT29 & HCT116) were chosen for study, whose behavior as rapidly proliferating invasive cells could be generalized to many other such cell types from different tissue origins. The two lines were immortalized colon carcinomas. Their gene expression patterns are known to mimic the behavior of neuro-enteric cells and therefore provide an appropriate simulation of the kinds of regulatory patterns that would be found in cells of similar epithelial or endothelial origin. Cells with these ontological roots are also suitable models for the kinds of autoimmune and inflammatory susceptibilities that are common in tissues of neuroenteric origin, such as those in which inflammatory bowel disease would present itself.
Frozen cell pellets were lysed in triplicate and total RNA isolated by purification over spin columns (all reagents from Ambion). After QC acceptance for purity, total RNA was converted to cRNA by linear amplification and 10 μg samples were applied to CodeLink Human Whole Genome Bioarrays (GE Healthcare and GenUs Biosystems).
Arrays were processed in triplicate and comparisons made after robust statistical analysis of replicate variability. […] False discovery rates and representation in standardized gene ontologies/pathways were then determined by filtering the “fold” changes in expression with open access software packages, EASE and GoMiner, and with Pathways Analysis (Ingenuity Systems). Functional annotations were then explored further in the MedMiner literature search environment.
A listing of these is shown in Table 3, in which the first column data presents the fold change against control, the second column cites the gene symbol, the third column cites the Genbank Accession, and the fourth column provides an abridged description of the gene's function.

For `CCN(CC)CCNc1ccc2ncn3c4ccc(O)cc4c(=O)c1c23` [Symadex™, 5-[[(diethylamino)ethyl]amino]-8-hydroxyimidazo[4,5,1-de]-acridine-6-one], the “fold down-regulation of SULT4A1” value was ~300 fold, the “fold down-regulation of SYNE1” value was 1500 fold and the “Mean fold change over control: NT5C3” value (AA188573) was −2.08. The “Mean fold change over control: SLC9A7” value (AA279477) was −8.20, the “Mean fold change over control: PPP2R5A” value (AA496141) was −36.93 and the “Mean fold change over control: ACYP1” value (AA664719) was −2.07. For the same compound, the “Mean fold change over control: PRLR” value (AA708864) was −25.92, the “Mean fold change over control: UBL4” value (AA873769) was −10.12 and the “Mean fold change over control: PPP1R9A” value (AB033048) was −26.54. For the same compound, the “Mean fold change over control: MAP6” value (AB058781) was −12.89, the “Mean fold change over control: ASAH2” value (AF250847) was −2.21 and the “Mean fold change over control: MTIF2” value (AI064964) was −59.05. The “Mean fold change over control: NEB” value (AI079911) was −6.89, the “Mean fold change over control: MGAT4A” value (AI364966) was −10.83 and the “Mean fold change over control: EIF2AK4” value (AI630242) was −15.24. The “Mean fold change over control: ATP1B4” value (AI659245) was −8.24, the “Mean fold change over control: VAPA” value (AI671488) was −12.46 and the “Mean fold change over control: PAFAH1B1” value (AI674778) was −12.85. For the same compound, the “Mean fold change over control: PMPCB” value (AK090763) was −15.36, the “Mean fold change over control: IL1RAP” value (AK095107) was −11.23 and the “Mean fold change over control: PFKL” value (AK098228) was −10.55. The “Mean fold change over control: KIF5A” value (AL118561) was −11.04, the “Mean fold change over control: LNX” value (AL565198) was −87.48 and the “Mean fold change over control: ACTA2” value (AL713608) was −17.00. The “Mean fold change over control: DHFR” value (AU127142) was −2.95, the “Mean fold change over control: SIN3B” value (AW051366) was −2.93 and the “Mean fold change over control: NDUFV3” value (AW139027) was −10.52. For the same compound, the “Mean fold change over control: TSFM” value (AW603708) was −2.11, the “Mean fold change over control: PXN” value (AW969600) was −6.00 and the “Mean fold change over control: PTPRG” value (BC047734) was −18.91. For the same compound, the “Mean fold change over control: TRA2A” value (BF093914) was −2.55, the “Mean fold change over control: RPL4” value (BF308998) was −39.17 and the “Mean fold change over control: PLXNA3” value (BF926082) was −8.04. For the same compound, the “Mean fold change over control: ITGA9” value (BF959890) was −27.91, the “Mean fold change over control: MT2A” value (BG505162) was −2.09 and the “Mean fold change over control: PECAM1” value (BG739826) was −17.53. For the same compound, the “Mean fold change over control: NCF1” value (BI021745) was −33.67, the “Mean fold change over control: FNTA” value (BI715309) was −9.02 and the “Mean fold change over control: RB1” value (BI769614) was −84.42. The “Mean fold change over control: ENG” value (BM665467) was −6.35, the “Mean fold change over control: MT1A” value (BM684446) was −16.21 and the “Mean fold change over control: RPS3” value (BM693455) was −68.37. For the same compound, the “Mean fold change over control: MAPT” value (BM714794) was −26.53, the “Mean fold change over control: NT5E” value (BM994339) was −17.10 and the “Mean fold change over control: MXD3” value (BQ053282) was −2.66. For the same compound, the “Mean fold change over control: RYR3” value (BU533957) was −2.43, the “Mean fold change over control: ZNF145” value (BU607554) was −30.18 and the “Mean fold change over control: CASR” value (BX106711) was −11.45. For the same compound, the “Mean fold change over control: EIF4EL3” value (BX111619) was −15.36, the “Mean fold change over control: GNAL” value (BX116836) was −18.16 and the “Mean fold change over control: GPR1” value (CB992712) was −11.49. The “Mean fold change over control: OLR1” value (CD678960) was −16.33, the “Mean fold change over control: TMPO” value (H57815) was −2.64 and the “Mean fold change over control: ACVRL1” value (NM_000020) was −9.43. For the same compound, the “Mean fold change over control: AGT” value (NM_000029) was −22.71, the “Mean fold change over control: APOA1” value (NM_000039) was −13.15 and the “Mean fold change over control: BLM” value (NM_000057) was −2.58. The “Mean fold change over control: COL1A2” value (NM_000089) was −54.48, the “Mean fold change over control: CYP19A1” value (NM_000103) was −20.65 and the “Mean fold change over control: FBN1” value (NM_000138) was −13.00. The “Mean fold change over control: GIPR” value (NM_000164) was −19.73, the “Mean fold change over control: GLA” value (NM_000169) was −2.51 and the “Mean fold change over control: SPTB” value (NM_000347) was −16.71. The “Mean fold change over control: ITGA2B” value (NM_000419) was −10.64, the “Mean fold change over control: NCF2” value (NM_000433) was −21.83 and the “Mean fold change over control: OXCT” value (NM_000436) was −2.68. For the same compound, the “Mean fold change over control: SHOX” value (NM_000451) was −7.34, the “Mean fold change over control: HNF4A” value (NM_000457) was −7.42 and the “Mean fold change over control: NR0B1” value (NM_000475) was −15.94. For the same compound, the “Mean fold change over control: TYRP1” value (NM_000550) was −12.47, the “Mean fold change over control: IL13RA2” value (NM_000640) was −9.79 and the “Mean fold change over control: ADH1C” value (NM_000669) was −12.02. The “Mean fold change over control: CHRNA5” value (NM_000745) was −2.14, the “Mean fold change over control: DCK” value (NM_000788) was −1.94 and the “Mean fold change over control: GABRA3” value (NM_000808) was −10.14. The “Mean fold change over control: PRIM1” value (NM_000946) was −3.47, the “Mean fold change over control: SCNN1G” value (NM_001039) was −14.52 and the “Mean fold change over control: SLC6A4” value (NM_001045) was −19.44. The “Mean fold change over control: ADCYAP1” value (NM_001117) was −21.74, the “Mean fold change over control: BIRC5” value (NM_001168) was −1.91 and the “Mean fold change over control: PRDM1” value (NM_001198) was −3.78. The “Mean fold change over control: CSE1L” value (NM_001316) was −2.53, the “Mean fold change over control: TADA2L” value (NM_001488) was −2.04 and the “Mean fold change over control: HSPB2” value (NM_001541) was −13.76. For the same compound, the “Mean fold change over control: BGN” value (NM_001711) was −12.57, the “Mean fold change over control: CD58” value (NM_001779) was −2.40 and the “Mean fold change over control: CDC2” value (NM_001786) was −2.09. The “Mean fold change over control: CDC25C” value (NM_001790) was −2.99, the “Mean fold change over control: CKS1B” value (NM_001826) was −2.38 and the “Mean fold change over control: CREM” value (NM_001881) was −2.13. For the same compound, the “Mean fold change over control: DSC3” value (NM_001941) was −89.97, the “Mean fold change over control: DUT” value (NM_001948) was −2.08 and the “Mean fold change over control: FBLN1” value (NM_001996) was −17.42. For the same compound, the “Mean fold change over control: FCAR” value (NM_002000) was −11.62, the “Mean fold change over control: H2AFX” value (NM_002105) was −2.31 and the “Mean fold change over control: H2AFZ” value (NM_002106) was −2.35. For the same compound, the “Mean fold change over control: HMGB1” value (NM_002128) was −1.97, the “Mean fold change over control: HNRPA2B1” value (NM_002137) was −1.93 and the “Mean fold change over control: IL7R” value (NM_002185) was −25.20. The “Mean fold change over control: ITGAE” value (NM_002208) was −2.12, the “Mean fold change over control: KCNJ15” value (NM_002243) was −6.83 and the “Mean fold change over control: KRT13” value (NM_002274) was −3.34. For the same compound, the “Mean fold change over control: LTB” value (NM_002341) was −12.57, the “Mean fold change over control: MAD2L1” value (NM_002358) was −3.14 and the “Mean fold change over control: MAZ” value (NM_002383) was −1.89. The “Mean fold change over control: NUDT1” value (NM_002452) was −1.89, the “Mean fold change over control: NDUFA6” value (NM_002490) was −2.51 and the “Mean fold change over control: NDUFB3” value (NM_002491) was −15.58. The “Mean fold change over control: NFKBIB” value (NM_002503) was −2.01, the “Mean fold change over control: NTHL1” value (NM_002528) was −2.34 and the “Mean fold change over control: PAFAH1B2” value (NM_002572) was −2.25. The “Mean fold change over control: PCSK2” value (NM_002594) was −16.89, the “Mean fold change over control: POLE2” value (NM_002692) was −2.62 and the “Mean fold change over control: MAPK13” value (NM_002754) was −2.14. The “Mean fold change over control: RAD51” value (NM_002875) was −2.21, the “Mean fold change over control: RFC4” value (NM_002916) was −2.02 and the “Mean fold change over control: RPA3” value (NM_002947) was −2.54. The “Mean fold change over control: SFRS3” value (NM_003017) was −2.84, the “Mean fold change over control: ITSN1” value (NM_003024) was −15.06 and the “Mean fold change over control: SNAI2” value (NM_003068) was −17.45. For the same compound, the “Mean fold change over control: SRY” value (NM_003140) was −13.79, the “Mean fold change over control: TFAP2A” value (NM_003220) was −11.00 and the “Mean fold change over control: TK1” value (NM_003258) was −2.34. The “Mean fold change over control: NR2E1” value (NM_003269) was −54.82, the “Mean fold change over control: TNP1” value (NM_003284) was −36.20 and the “Mean fold change over control: TTK” value (NM_003318) was −2.24. The “Mean fold change over control: VRK1” value (NM_003384) was −2.79, the “Mean fold change over control: DEK” value (NM_003472) was −2.36 and the “Mean fold change over control: CSRP3” value (NM_003476) was −26.26. For the same compound, the “Mean fold change over control: ZNF282” value (NM_003575) was −31.24, the “Mean fold change over control: FOXN1” value (NM_003593) was −9.60 and the “Mean fold change over control: STK6” value (NM_003600) was −1.92. The “Mean fold change over control: SEMA7A” value (NM_003612) was −16.54, the “Mean fold change over control: HAT1” value (NM_003642) was −2.63 and the “Mean fold change over control: COPS3” value (NM_003653) was −2.54. For the same compound, the “Mean fold change over control: CAMK1” value (NM_003656) was −1.92 and the “Mean fold change over control: IL1RL1” value (NM_003856) was −28.60.
